Measured values reported in ChEMBL document CHEMBL1201862, “PubChem BioAssay data set” (2004).
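Where inhibition never reached the appropriate level, the endpoint shown equals the highest concentration tested. Otherwise, values were interpolated linearly from a five-concentration, 48-hour dose response in 96-well plates. GI50 is the concentration that inhibits growth by half.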 Activity calls are given as the source filed them. Cut-off read from the data, not from the text of the source: active = GI50 up to about 1.1 µM and inactive = higher.

Key:
Assay in all cases: inhibition of tumour cell growth, NCI panel, 48 h
[1] = tested on: 786-0
[2] = tested on: DU-145
[3] = tested on: HCC 2998
[4] = tested on: HOP-62
[5] = tested on: HOP-92
[6] = tested on: K562
[7] = tested on: KM12
[8] = tested on: LOX IMVI
[9] = tested on: MDA-MB-231
[10] = tested on: NCI-H23
[11] = tested on: OVCAR-4
[12] = tested on: PC-3
[13] = tested on: SNB-19
[14] = tested on: SR
[15] = tested on: U-251
[16] = tested on: BT-549
[17] = tested on: EKVX
[18] = tested on: SF-295

SMILES: O=C(Cn1c(=O)oc2ccc(C(=O)c3ccc(F)cc3)cc21)c1ccccc1
- GI50 [1]: > 100 µM (inactive)
- GI50 [2]: > 100 µM (inactive)
- GI50 [3]: > 100 µM (inactive)
- GI50 [4]: > 100 µM (inactive)
- GI50 [5]: > 100 µM (inactive)
- GI50 [6]: > 100 µM (inactive)
- GI50 [7]: > 100 µM (inactive)
- GI50 [8]: > 100 µM (inactive)
- GI50 [9]: > 100 µM (inactive)
- GI50 [10]: > 100 µM (inactive)
- GI50 [11]: > 100 µM (inactive)
- GI50 [12]: > 100 µM (inactive)
- GI50 [13]: > 100 µM (inactive)
- GI50 [14]: > 100 µM (inactive)
- GI50 [15]: > 100 µM (inactive)

SMILES: Cc1nc(C(N)=S)sc1C(=O)CC(=O)C(=O)Nc1nc2ccccc2[nH]1
- GI50 [1]: > 100 µM (inactive)
- GI50 [16]: > 100 µM (inactive)
- GI50 [17]: > 100 µM (inactive)
- GI50 [3]: > 100 µM (inactive)
- GI50 [4]: > 100 µM (inactive)
- GI50 [5]: 69.5 µM (inactive)
- GI50 [6]: > 100 µM (inactive)
- GI50 [7]: > 100 µM (inactive)
- GI50 [8]: > 100 µM (inactive)
- GI50 [9]: > 100 µM (inactive)
- GI50 [10]: > 100 µM (inactive)
- GI50 [11]: > 100 µM (inactive)
- GI50 [12]: > 100 µM (inactive)
- GI50 [18]: > 100 µM (inactive)
- GI50 [14]: > 100 µM (inactive)
- GI50 [15]: > 100 µM (inactive)

SMILES: COc1cc([N+](=O)[O-])c(S(=O)(=O)O)cc1-n1nc(C(=O)Nc2ccccc2)n[n+]1-c1cc(S(=O)(=O)[O-])c([N+](=O)[O-])cc1OC
- GI50 [1]: > 100 µM (inactive)
- GI50 [16]: > 100 µM (inactive)
- GI50 [2]: > 100 µM (inactive)
- GI50 [17]: > 100 µM (inactive)
- GI50 [4]: > 100 µM (inactive)
- GI50 [5]: > 100 µM (inactive)
- GI50 [6]: 88.7 µM (inactive)
- GI50 [7]: > 100 µM (inactive)
- GI50 [8]: 9.84 µM (inactive)
- GI50 [10]: > 100 µM (inactive)
- GI50 [11]: > 100 µM (inactive)
- GI50 [12]: > 100 µM (inactive)
- GI50 [18]: > 100 µM (inactive)
- GI50 [13]: > 100 µM (inactive)
- GI50 [14]: > 100 µM (inactive)
- GI50 [15]: 97.7 µM (inactive)

SMILES: O=[N+]([O-])c1ccc(O)c(/C=N/CC2CCCN3CCCCC23)c1 (stereo unspecified)
- GI50 [1]: 38.8 µM (inactive)
- GI50 [16]: 38.6 µM (inactive)
- GI50 [2]: 42.2 µM (inactive)
- GI50 [17]: 31.4 µM (inactive)
- GI50 [3]: 22.5 µM (inactive)
- GI50 [4]: 83.4 µM (inactive)
- GI50 [7]: 37.7 µM (inactive)
- GI50 [8]: 38.8 µM (inactive)
- GI50 [9]: 88.1 µM (inactive)
- GI50 [10]: 46.7 µM (inactive)
- GI50 [12]: 57.1 µM (inactive)
- GI50 [18]: 31.2 µM (inactive)
- GI50 [13]: 25.1 µM (inactive)

SMILES: COC(=O)C1=C(O)C(C(=O)OC)[C@]2(O)[C@H](C(=O)OC)[C@H]1C[C@@H](c1cccc(OC)c1)[C@H]2C(=O)OC (stereo partly specified)
- GI50 [1]: 20.7 µM (inactive)
- GI50 [16]: 30.6 µM (inactive)
- GI50 [17]: 29.5 µM (inactive)
- GI50 [3]: 20.5 µM (inactive)
- GI50 [4]: 31 µM (inactive)
- GI50 [5]: 47 µM (inactive)
- GI50 [6]: 28.4 µM (inactive)
- GI50 [7]: 27.7 µM (inactive)
- GI50 [8]: 36.5 µM (inactive)
- GI50 [9]: 27.2 µM (inactive)
- GI50 [10]: 30.4 µM (inactive)
- GI50 [11]: 29 µM (inactive)
- GI50 [18]: 35.8 µM (inactive)
- GI50 [13]: 25.9 µM (inactive)
- GI50 [14]: 21.9 µM (inactive)
- GI50 [15]: 24.2 µM (inactive)

SMILES: [N-]=[N+]=Nc1c(Cl)c(Cl)nc2ccccc12
- GI50 [1]: > 100 µM (inactive)
- GI50 [2]: 72.1 µM (inactive)
- GI50 [17]: 92.7 µM (inactive)
- GI50 [3]: > 100 µM (inactive)
- GI50 [4]: > 100 µM (inactive)
- GI50 [5]: 35.3 µM (inactive)
- GI50 [6]: 81.3 µM (inactive)
- GI50 [7]: > 100 µM (inactive)
- GI50 [8]: 62.1 µM (inactive)
- GI50 [9]: 81.5 µM (inactive)
- GI50 [10]: 75.5 µM (inactive)
- GI50 [11]: 85.7 µM (inactive)
- GI50 [12]: > 100 µM (inactive)
- GI50 [18]: 82.8 µM (inactive)
- GI50 [13]: > 100 µM (inactive)
- GI50 [14]: > 100 µM (inactive)

SMILES: C(#C[C@@]12CCC[C@@H]1N(Cc1ccccc1)CO2)c1ccc2c(c1)OCO2
- GI50 [1]: > 100 µM (inactive)
- GI50 [16]: > 100 µM (inactive)
- GI50 [2]: > 100 µM (inactive)
- GI50 [17]: > 100 µM (inactive)
- GI50 [3]: > 100 µM (inactive)
- GI50 [4]: > 100 µM (inactive)
- GI50 [6]: > 100 µM (inactive)
- GI50 [7]: > 100 µM (inactive)
- GI50 [9]: > 100 µM (inactive)
- GI50 [10]: > 100 µM (inactive)
- GI50 [11]: > 100 µM (inactive)
- GI50 [12]: > 100 µM (inactive)
- GI50 [18]: > 100 µM (inactive)
- GI50 [13]: > 100 µM (inactive)
- GI50 [15]: > 100 µM (inactive)

SMILES: COC[C@H]1OC(=O)c2coc3c2[C@@]1(C)C1=C(C3=O)[C@@H]2CCC(=O)[C@@]2(C)C[C@H]1OC(C)=O [WORTMANNIN]
- GI50 [1]: 8.43 µM (inactive)
- GI50 [2]: 3.34 µM (inactive)
- GI50 [17]: 9.66 µM (inactive)
- GI50 [3]: 2.16 µM (inactive)
- GI50 [4]: 3.05 µM (inactive)
- GI50 [6]: 37.2 µM (inactive)
- GI50 [7]: 11.5 µM (inactive)
- GI50 [8]: 3.66 µM (inactive)
- GI50 [10]: 35.7 µM (inactive)
- GI50 [12]: 0.598 µM (active)
- GI50 [18]: 2.96 µM (inactive)
- GI50 [13]: 6.38 µM (inactive)
- GI50 [14]: 1.84 µM (inactive)

SMILES: O=S(=O)(O)c1cc(S(=O)(=O)O)c2c(/N=N/c3ccc(S(=O)(=O)O)c4ccccc34)c(O)ccc2c1
- GI50 [1]: > 100 µM (inactive)
- GI50 [16]: > 100 µM (inactive)
- GI50 [2]: > 100 µM (inactive)
- GI50 [17]: > 100 µM (inactive)
- GI50 [4]: > 100 µM (inactive)
- GI50 [5]: > 100 µM (inactive)
- GI50 [6]: > 100 µM (inactive)
- GI50 [7]: > 100 µM (inactive)
- GI50 [8]: > 100 µM (inactive)
- GI50 [9]: > 100 µM (inactive)
- GI50 [10]: > 100 µM (inactive)
- GI50 [11]: > 100 µM (inactive)
- GI50 [12]: > 100 µM (inactive)
- GI50 [18]: > 100 µM (inactive)
- GI50 [13]: > 100 µM (inactive)
- GI50 [15]: > 100 µM (inactive)
